Data reported in ChEMBL document CHEMBL1126831, “A structure-activity study of four dopamine D-1 and D-2 receptor antagonists, representing the phenylindan, -indene, and -indole structural classes of compounds” (J Med Chem, 1993).

Experiments:
[1] = biological target: D(1A) dopamine receptor (Rattus norvegicus, UniProt P18901); experiment: Binding affinity towards dopamine receptor D1 by displacement of [3H]-SCH- radioligand in rat striatal membranes; assay type: cell membranes, Membrane
[2] = biological target: D(2) dopamine receptor (Rattus norvegicus, UniProt P61169); experiment: Binding affinity towardst dopamine D2 receptor by displacement of [3H]-SPI radioligand in rat striatal membranes; assay type: cell membranes, Membrane
D(2) dopamine receptor, sequence (P61169 whole entry): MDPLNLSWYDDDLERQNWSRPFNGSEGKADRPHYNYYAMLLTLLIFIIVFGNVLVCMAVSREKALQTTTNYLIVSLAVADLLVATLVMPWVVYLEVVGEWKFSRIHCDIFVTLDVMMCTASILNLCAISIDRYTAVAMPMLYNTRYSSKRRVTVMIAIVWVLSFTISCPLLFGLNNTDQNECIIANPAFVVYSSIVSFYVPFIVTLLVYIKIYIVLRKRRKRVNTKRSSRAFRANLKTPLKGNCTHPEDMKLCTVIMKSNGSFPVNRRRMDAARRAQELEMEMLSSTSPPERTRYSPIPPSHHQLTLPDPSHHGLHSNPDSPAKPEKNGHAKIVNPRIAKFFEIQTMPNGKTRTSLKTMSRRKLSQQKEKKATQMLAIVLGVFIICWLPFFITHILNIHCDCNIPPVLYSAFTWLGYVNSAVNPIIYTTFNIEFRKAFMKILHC

D(1A) dopamine receptor, sequence (P18901 whole entry): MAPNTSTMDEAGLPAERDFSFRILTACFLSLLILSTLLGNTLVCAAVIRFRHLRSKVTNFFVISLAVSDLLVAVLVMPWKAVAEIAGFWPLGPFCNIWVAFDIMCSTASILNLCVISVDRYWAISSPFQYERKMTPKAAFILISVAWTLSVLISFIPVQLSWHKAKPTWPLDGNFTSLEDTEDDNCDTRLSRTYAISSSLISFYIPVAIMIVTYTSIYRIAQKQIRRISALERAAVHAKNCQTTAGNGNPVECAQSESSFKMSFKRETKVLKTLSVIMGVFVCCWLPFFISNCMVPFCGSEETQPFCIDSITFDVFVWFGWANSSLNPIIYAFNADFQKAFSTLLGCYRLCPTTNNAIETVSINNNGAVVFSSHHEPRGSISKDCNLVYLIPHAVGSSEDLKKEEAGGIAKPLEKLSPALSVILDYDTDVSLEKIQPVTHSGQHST

IC50 [1] | IC50 [2] | SMILES
12 nM | 19 nM | CN1CCC(C2=CC(c3ccc(F)cc3)c3ccc(Cl)cc32)CC1 (stereo not drawn)
9.5 nM | 12 nM | CN1CCN(C2CC(c3ccc(F)cc3)c3ccc(Cl)cc32)CC1 (stereo not drawn)
23 nM | 5.1 nM | CN1CC=C(C2=CC(c3ccc(F)cc3)c3ccc(Cl)cc32)CC1 (stereo not drawn)
19 nM | – | OCCN1CCN([C@@H]2C[C@@H](c3ccc(F)cc3)c3ccc(C(F)(F)F)cc32)CC1 [TEFLUDAZINE]

SMILES | IC50 [1] | IC50 [2]
CN1CC=C(c2cn(-c3ccc(F)cc3)c3ccc(Cl)cc23)CC1 | 9.8 nM | –
